Data taken from patent publication US7122360B1, “Polypeptides, polynucleotides and uses thereof” (University of Dundee, priority 1998, dated 2006).
Entries after “also recorded” stand apart in the source; their conditions may differ.

Assays:
COX-2 protein = assay: Induction of COX-2 protein in RAW 264 macrophages, immunoblot; type: cell-based, mouse; conditions: LPS 100 ng/ml 4 h, 50 TM PD 98059, 10 TM SB 203580, 5 TM Ro 318220
Protocol: FIG. 20. […] (A) Macrophages were stimulated for the times indicated with LPS (100 ng/ml).
(§1) FIG. 22. […] (A) Macrophages were stimulated for 1 h with LPS (100 ng/ml) or for 15 min with forskolin (F) (20 TM) plus IBMX (10 TM). After cell lysis, aliquots of the lysate (30 Tg protein) were immunoblotted with a phospho-specific CREB antibody (see legend to FIG. 19 for details and molecular mass markers). (B) Macrophages were stimulated for 3 h with LPS (100 ng/ml), or forskolin (20 TM) plus IBMX (10 TM), and immunoblotting performed with a specific COX-2 antibody (materials & methods section). The marker proteins are as in FIG. 19.
(§2) Cell culture and stimulation. RAW 264 macrophages were maintained in a 95% air/5% CO2 atmosphere in Dulbecco's modified Eagle's medium (DMEM) plus 10% (v/v) heat-inactivated foetal calf serum, 100 U/ml penicillin, […] streptomycin. The day before stimulation, the macrophages were plated at a density of 2×10^6 cells per 6 cm plate and 2 h before stimulation, the medium removed and replaced with 2 ml of DMEM. Where indicated, […] (10 TM) and/or PD 98059 (50 Tm), or U0126 (10 TM) or Ro 318220 (5 TM), were added 1 h before stimulation.
(§3) Immunoblotting. For immunoblotting of CREB, nuclear cell extracts were prepared as described and immunoblotting performed using a phospho-specific antibody recognising CREB phosphorylated on Ser 133 and ATF1 phosphorylated on Ser 63. For immunoblotting of COX-2, cell lysate (30 Tg protein) was denatured in SDS, electrophoresed on 10% polyacrylamide gel, transferred to a nitrocellulose membrane, and immunoblotted with anti-COX-2 antibody (1.0 mg/ml). Detection of phosphorylated CREB and ATF1 and COX-2 was performed using the enhanced chemiluminescence reagent (ECL).

CREB and ATF1 [1] = assay: CREB and ATF1 phosphorylation in RAW 264 macrophages, immunoblot; type: cell-based, mouse; conditions: for LPS-induced phosphorylation of CREB and ATF1: LPS 100 ng/ml 1 h
Protocol: FIG. 15. […] After cell lysis aliquots were assayed for either MSK1 (A), MAPKAP-K1 (B), MAPKAP-K2 (C) after their immunoprecipitation from the lysates or immunoblotted for phosphorylation of CREB and ATF1 (D).
FIG. 19. […] (A) Macrophages were stimulated for the times indicated with LPS (100 ng/ml). After cell lysis, aliquots of the lysate (30 Tg protein) were denatured in SDS, electrophoresed on a 10% polyacrylamide gel, transferred to a nitrocellulose membrane, and immunoblotted with a phospho-CREB antibody. The positions of the molecular mass markers glycogen phosphorylase (97 kDa), bovine serum albumin (66 kDa), ovalbumin (43 kDa) and carbonic anhydrase (30 kDa) are indicated. […] (B) As in A, except that the macrophages were incubated for 1 h in the presence or absence of 50 TM PD 98059 and/or 10 TM SB 203580 (SB), or 5 TM Ro 318220 (Ro), then stimulated for 1 h in the absence or presence of 100 ng/ml LPS and in the continued presence or absence of the inhibitors.
as §1, §2, §3

COX-2 mRNA = assay: COX-2 gene transcription in RAW 264 macrophages, RT-PCR; type: cell-based, mouse; conditions: LPS 3 h, PD 98059 (50 TM), SB 203580 (10 TM), Ro 318220 (5 TM)
Protocol: (§4) FIG. 21. Effect of PD 98059 and SB 203580 on gene transcription in RAW 264 macrophages. (A) Cells were stimulated for the times indicated with LPS (100 ng/ml). Total RNA was extracted at each time point and mRNA encoding IL-1, COX-2 and HRPT was determined using the reverse transcriptase polymerase chain reaction (Section 2.6). (B) As in A, except that the macrophages were incubated for 1 h in the presence or absence of PD 98059 (50 TM) and/or SB 203580 (10 TM), or Ro 318220 (5 TM), then stimulated for 3 h in the absence or presence of LPS, and in the continued presence or absence of the inhibitors. RTPCR was performed using oligonucleotides encoding fragments of IL-1, COX-2 and HPRT.
as §2
(§5) Reverse transcripts polymerase chain reactions. Total RNA was prepared from LPS-stimulated or control RAW 264 cells using the Rneasy Mini Kit according to the manufacturer's protocol. Total RNA was measured and 100 ng was reverse transcribed using Promega AMV reverse transcriptase (5 U/ml) with the oligonucleotides […] and […] TGA (coding for the IL-1 gene) and […] and […] (coding for the COX-2 gene). Conditions for PCR amplification of the resulting first-stand DNA template were 94° C. denaturing for 30 sec, 60° C. annealing for 1 min, 68° C. extension for 1 min, 30 cycles using thermostable Tf1 DNA polymerase (SU/ml), and 1 mM MgSO4.

CREB = assay: Arsenite and FGF-induced phosphorylation of CREB in SK-N-MC cells; type: cell-based; conditions: for FGF-induced phosphorylation of CREB: 50 μM PD 98059, 10 μM SB 203580, FGF 50 ng/ml 15 min
Protocol: FIG. 14. […] After cell lysis aliquots were assayed for either MSK1 (A), MAPKAP-K1 (B), MAPKAP-K2 (C) after their immunoprecipitation from the lysates or immunoblotted for phosphorylation of CREB and ATF1 (D).
(§6) Immunoblotting for phosphorylated CREB and ATF1. Cell extracts were prepared and immunoblotting of these carried out as described (Tan et al., 1996) using a phosphospecific antibody recognizing CREB phosphorylated on Ser 133 and ATF1 phosphorylated on Ser63 purchased from UBI (Lake Placid, USA). Detection of phosphorylated CREB and ATF1 proteins was performed using the enhanced chemiluminescence reagent (Amersham).

IL-1 mRNA = assay: IL-1 gene transcription in RAW 264 macrophages, RT-PCR; type: cell-based, mouse; conditions: LPS 3 h, PD 98059 (50 TM), SB 203580 (10 TM), Ro 318220 (5 TM)
Protocol: as §4, §2, §5

CREB and ATF1 [2] = assay: Phosphorylation of CREB (Ser133) and ATF1 (Ser63) in 293 cells, immunoblot; type: cell-based, human; conditions: for UV radiation-induced phosphorylation of CREB and ATF1: 5 μM Ro 318220, 10 μM SB 203580, 50 μM PD 98059; for EGF-induced CREB phosphorylation: 5 μM Ro 318220, 10 μM SB 203580, 50 μM PD 98059, EGF 100 ng/ml
Protocol: FIG. 10. […] 293 cells were pre-treated either in the presence or absence of 5 μM Ro 318220 (Ro), 10 μM SB 203580 (SB), 50 μM PD 98059 (PD), and then exposed to either (A, D) UV radiation (200 J/m^2, 30 min and then 30 min at 37° C.) (B, E) EGF (100 ng/ml, 15 min), (C) forskolin (20 μM, 15 min). The cells were lysed and proteins were separated on 10% acrylamide gels and immunoblotted using a phosphospecific antibody that recognised both CREB and ATF1 when phosphorylated on Ser133 and Ser63 respectively. The position of CREB and ATF1 on the blots is indicated.
as §6

[3] = 50 TM PD 98059, 10 TM SB 203580, 5 TM Ro 318220

Structure (SMILES)	LPS-stimulated induction of COX-2 protein (COX-2 protein)	LPS-induced phosphorylation of CREB and ATF1 (CREB and ATF1 [1]; [3])	LPS-induced phosphorylation of CREB and ATF1 (CREB and ATF1 [1]; 50 TM PD 98059, 10 TM SB 203580, 5 TM Ro 318220, listed as SB203580)	LPS induction of COX-2 mRNA (COX-2 mRNA)	FGF-induced phosphorylation of CREB (CREB)	sodium arsenite-induced activation of CREB (CREB; 50 μM PD 98059, 10 μM SB 203580, arsenite 0.5 mM 15 min)	LPS induction of IL-1 mRNA (IL-1 mRNA)	UV radiation-induced phosphorylation of CREB and ATF1 (CREB and ATF1 [2])	EGF-induced CREB phosphorylation (CREB and ATF1 [2])	forskolin-triggered phosphorylation of CREB and ATF-1, effect of inhibitors (CREB and ATF1 [1]; data not shown)	phosphorylation of CREB at Ser133 (CREB; sodium arsenite or FGF, 5 μM Ro 318220)	phosphorylation of CREB and ATF1 induced by forskolin (CREB and ATF1 [2]; 5 μM Ro 318220, forskolin 20 μM, 15 min)
C[S+]([O-])c1ccc(-c2nc(-c3ccncc3)c(-c3ccc(F)cc3)[nH]2)cc1 (stereo not drawn) [SB 203580]	partially inhibited	partially inhibited	appear to inhibit	partially suppressed	only inhibited slightly	prevented	partially inhibited	inhibited	not SB203580	–	–	–
Cn1cc(C2=C(c3cn(CCCSC(=N)N)c4ccccc34)C(=O)NC2=O)c2ccccc21 [Ro 318220]	suppresses	completely prevents	–	suppresses	–	–	suppresses	largely inhibited	largely inhibited	not suppressed	largely suppressed	unaffected
COc1cccc(-c2cc(=O)c3ccccc3o2)c1N [PD 98059]	partially inhibited	appear to inhibit; also recorded: partially inhibited	–	partially suppressed	only inhibited slightly; also recorded: did not significantly suppress	–	partially inhibited	–	prevented	–	–	–
